The test system of the data set is CCRIS mutagenicity, Ames/micronucleus/aberration tests. In words: CCRIS mutagenicity studies.

Molecules are shown by their SMILES. Calls of active or inactive are those of the source. How the calls were made is not given here.

As for `Nc1ccccc1S`, the mutagenic call was “active; positive (structural changes and ploidy)” (End Point: In vitro chromosomal aberrations, Test System: Chinese hamster lung (CHL/IU) cells, Metabolic Activation: Rat, Liver, S9, Phenobarbital and 5,6-benzoflavone); “inactive; negative” (Test System: AMES SALMONELLA TYPHIMURIUM, Strain/Indicator: TA98, Metabolic Activation: RAT, LIVER, S-9, PHENOBARBITAL AND BETA-NAPHTHOFLAVONE, Method: PREINCUBATION); “inactive; negative” (Test System: AMES SALMONELLA TYPHIMURIUM, Strain/Indicator: TA100, Metabolic Activation: NONE, Method: PREINCUBATION); “inactive; negative” (Test System: AMES SALMONELLA TYPHIMURIUM, Strain/Indicator: TA100, Metabolic Activation: RAT, LIVER, S-9, PHENOBARBITAL AND BETA-NAPHTHOFLAVONE, Method: PREINCUBATION); “inactive; negative” (Test System: AMES SALMONELLA TYPHIMURIUM, Strain/Indicator: TA1535, Metabolic Activation: NONE, Method: PREINCUBATION); “inactive; negative” (Test System: AMES SALMONELLA TYPHIMURIUM, Strain/Indicator: TA1535, Metabolic Activation: RAT, LIVER, S-9, PHENOBARBITAL AND BETA-NAPHTHOFLAVONE, Method: PREINCUBATION). The mutagenic call is “inactive; negative” (Test System: AMES SALMONELLA TYPHIMURIUM, Strain/Indicator: TA1537, Metabolic Activation: NONE, Method: PREINCUBATION); “inactive; negative” (Test System: AMES SALMONELLA TYPHIMURIUM, Strain/Indicator: TA1537, Metabolic Activation: RAT, LIVER, S-9, PHENOBARBITAL AND BETA-NAPHTHOFLAVONE, Method: PREINCUBATION); “inactive; negative” (Test System: AMES SALMONELLA TYPHIMURIUM, Strain/Indicator: TA1537, Metabolic Activation: RAT, LIVER, S-9, SODIUM PHENOBARBITAL AND 5,6-BENZOFLAVONE, Method: PREINCUBATION); “inactive; negative” (Test System: E. COLI, Strain/Indicator: WP2UVRA, Metabolic Activation: NONE, Method: PREINCUBATION); “inactive; negative” (Test System: E. COLI, Strain/Indicator: WP2UVRA, Metabolic Activation: RAT, LIVER, S-9, PHENOBARBITAL AND BETA-NAPHTHOFLAVONE, Method: PREINCUBATION).
With `COc1nsc2cc([N+](=O)[O-])ccc12`, the mutagenic call (Test System: AMES SALMONELLA TYPHIMURIUM, Strain/Indicator: TA98, Metabolic Activation: NONE, Method: STANDARD PLATE) is “active; positive”.
